Measurements published in ChEMBL document CHEMBL1201862, “PubChem BioAssay data set” (2004).
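96-well plates; 48 h exposure; 5 concentrations. Endpoints by linear interpolation between flanking doses. Not reached: highest tested concentration assigned. Abbreviation: GI50, concentration required for 50% inhibition of growth.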 Calls of active or inactive are those of the source. Cut-off read from the data, not from the text of the source: active = GI50 up to about 1.1 µM and inactive = higher.

Legend:
Experiment in all cases: growth of human tumour cells (NCI), 48 h
RXF 631 = tested on: RXF 631
LXFL 529 = tested on: LXFL 529
SNB-78 = tested on: SNB-78
KM-20L2 = tested on: KM-20L2
DLD-1 = tested on: DLD-1
HOP-18 = tested on: HOP-18
DMS-114 = tested on: DMS-114
DMS-273 = tested on: DMS-273
XF498 = tested on: XF498

Measured: GI50

Cc1nc2ccc(NCCN(C)C)c3c(=O)c4ccccc4n1c23
inactive: RXF 631 1.74 µM | LXFL 529 6.56 µM | SNB-78 6.79 µM | KM-20L2 1.99 µM | DLD-1 2.74 µM | HOP-18 3.2 µM | DMS-114 5.52 µM

CC1(n2nc(-c3ccccc3)n(-c3ccccc3)c2=O)CSC1
inactive: DMS-273 82.4 µM | LXFL 529 > 100 µM | XF498 58.9 µM | SNB-78 > 100 µM | KM-20L2 > 100 µM | DLD-1 > 100 µM | DMS-114 69.5 µM

Clc1ccc2c(Cl)nc(-c3ccccc3)nc2c1
inactive: DMS-273 36.7 µM | LXFL 529 26.9 µM | XF498 3.88 µM | SNB-78 11.4 µM | KM-20L2 25.6 µM | DLD-1 27.6 µM | DMS-114 18.6 µM

CS/C(=N\c1ccccc1)N(c1ccccc1)c1nc(=[N+](C)C)ss1.[O-][Cl+3]([O-])([O-])[O-]
active: DMS-273 0.166 µM | KM-20L2 1.06 µM | DMS-114 0.0486 µM
inactive: SNB-78 5.06 µM

CNC(=O)OCc1nc(SC)n(C)c1COC(=O)NC
inactive: DMS-273 86.5 µM | XF498 253 µM | SNB-78 68.4 µM | KM-20L2 177 µM | DLD-1 183 µM | HOP-18 232 µM | DMS-114 80.5 µM

COc1cc(OC)c(C#N)c(OC)c1C
inactive: DMS-273 > 100 µM | LXFL 529 > 100 µM | XF498 5.62 µM | SNB-78 > 100 µM | KM-20L2 > 100 µM | DLD-1 > 100 µM | DMS-114 > 100 µM

O=CC1CCCc2ccccc21 (stereo unspecified)
inactive: DMS-273 > 100 µM | LXFL 529 > 100 µM | XF498 > 100 µM | SNB-78 > 100 µM | KM-20L2 > 100 µM | DLD-1 > 43.1 µM | HOP-18 > 100 µM | DMS-114 > 47.3 µM

CN(C)CCC(/C=C/c1ccccc1)=N\Nc1c(F)c(F)c(F)c(F)c1F
inactive: DMS-273 36.8 µM | LXFL 529 77.8 µM | SNB-78 50.9 µM | DLD-1 > 100 µM | HOP-18 44.1 µM | DMS-114 21.7 µM

O=C1CCC(=O)c2cc(Br)ccc2N1
inactive: DMS-273 > 100 µM | RXF 631 > 100 µM | LXFL 529 > 100 µM | XF498 > 100 µM | SNB-78 > 100 µM | KM-20L2 > 100 µM | DLD-1 > 100 µM | HOP-18 > 100 µM | DMS-114 > 90.6 µM

O=P(Nc1cccc(Cl)c1)(Oc1ccccc1)N(CCCl)CCCl (stereo unspecified)
inactive: DMS-273 13.6 µM | LXFL 529 11.7 µM | SNB-78 18.3 µM | KM-20L2 13.3 µM | DLD-1 14.4 µM | HOP-18 24.9 µM | DMS-114 12.7 µM

COc1ccc(C2C(Cl)C(=O)N2NC(=O)c2ccc(N)cc2)cc1 (stereo unspecified)
inactive: DMS-273 > 100 µM | LXFL 529 > 100 µM | XF498 > 100 µM | SNB-78 > 100 µM | KM-20L2 > 100 µM | DLD-1 > 100 µM | DMS-114 > 100 µM

Cc1ccc2c(c1CCCC(C)(C)O)C(=O)C(O)=C(C(C)C)C2=O
inactive: DMS-273 95.5 µM | LXFL 529 62.1 µM | KM-20L2 > 100 µM | DLD-1 > 100 µM | HOP-18 > 100 µM | DMS-114 39.1 µM

COc1ccc(/C=C/C(=N\NC(=O)c2ccccc2)c2sc(Nc3ccc([N+](=O)[O-])cc3)nc2C)cc1OC
inactive: DMS-273 12.5 µM | LXFL 529 7.67 µM | XF498 10.3 µM | SNB-78 8.55 µM | KM-20L2 8.67 µM | DLD-1 6.27 µM | HOP-18 27.7 µM | DMS-114 15.1 µM

CC1(c2ccc(Cl)cc2)C2C(=O)NC(=O)C1C(=O)NC2=O (stereo unspecified)
inactive: DMS-273 > 100 µM | LXFL 529 > 100 µM | XF498 > 100 µM | SNB-78 > 100 µM | KM-20L2 56.5 µM | DLD-1 > 100 µM

CCOC(=O)CC(=O)ON(C)C(=O)Cc1ccccc1
inactive: RXF 631 > 100 µM | LXFL 529 > 100 µM | SNB-78 > 100 µM | KM-20L2 > 100 µM | DLD-1 > 100 µM | DMS-114 > 100 µM

CC(C)=CC(=O)OC1C2C(C)C(=O)OC2C(O)C(C)C2C=CC(=O)C21C (stereo unspecified)
inactive: DMS-273 4.25 µM | XF498 5.08 µM | SNB-78 3.24 µM | KM-20L2 3.42 µM | DLD-1 1.14 µM | HOP-18 6.67 µM | DMS-114 2.58 µM

C[P+](C)(C)c1ccccc1
inactive: DMS-273 > 100 µM | RXF 631 > 100 µM | LXFL 529 > 100 µM | XF498 > 100 µM | KM-20L2 > 100 µM | DLD-1 > 100 µM | HOP-18 > 100 µM | DMS-114 > 100 µM

Cc1cc(N(CCC#N)CCC#N)ccc1/N=N/c1cccc(C(=O)O)c1
inactive: DMS-273 > 100 µM | RXF 631 > 100 µM | LXFL 529 > 100 µM | XF498 52.4 µM | SNB-78 > 100 µM | DLD-1 > 100 µM | HOP-18 > 100 µM | DMS-114 > 100 µM

CC(C)CCCCCCCCCCCCC(=O)NCC(=O)NC1C(C)OC(Nc2ncnc3c2ncn3C)C(O)C1O (stereo unspecified)
inactive: DMS-273 1.81 µM | XF498 3.56 µM | SNB-78 4.72 µM | KM-20L2 4.02 µM | DLD-1 12.1 µM | HOP-18 2.48 µM | DMS-114 7.82 µM

COc1ccc(/C(Cl)=C(\CN(C)C)c2ccc(OC)c(OC)c2)cc1OC.[B]
inactive: DMS-273 2.34 µM | LXFL 529 > 100 µM | SNB-78 10.1 µM | KM-20L2 > 100 µM | DLD-1 > 100 µM | HOP-18 > 100 µM

Cc1cc(O)nc(NNC(C#N)c2cccc(O)c2)n1 (stereo unspecified)
inactive: DMS-273 > 100 µM | LXFL 529 > 100 µM | SNB-78 > 100 µM | KM-20L2 > 100 µM | DLD-1 > 100 µM | HOP-18 86.7 µM | DMS-114 > 100 µM

COc1ccc(C2Oc3cc(OC)c(O)cc3[C@@H]2C)cc1 (stereo partly specified)
inactive: DMS-273 29.4 µM | LXFL 529 17.5 µM | XF498 16.9 µM | SNB-78 > 100 µM | KM-20L2 49.5 µM | DLD-1 19.9 µM | HOP-18 5.05 µM | DMS-114 18.7 µM

O=C(c1ccc(O)cc1O)C1C(c2ccc(O)cc2)OC(c2ccc(O)cc2)C1C(=O)c1ccc(O)cc1O (stereo unspecified)
inactive: DMS-273 16 µM | LXFL 529 17.3 µM | XF498 15.5 µM | SNB-78 19.1 µM | KM-20L2 71 µM | DLD-1 44.1 µM

CCC1(c2ccc(N)cc2)CCC(=O)NC1=O (stereo unspecified) [AMINOGLUTETHIMIDE]
inactive: DMS-273 2560 µM | XF498 1550 µM | SNB-78 2170 µM | KM-20L2 3940 µM | DLD-1 3230 µM | HOP-18 3120 µM | DMS-114 1530 µM
